The melting point is the temperature of the solid-liquid transition.

Data set [1] relates to polyclonal sera raised against 4-phosphopyrazol-1-yl alanine. Put plainly: Dot blot of BSA-glutaraldehyde conjugated analogues with affinity depleted rabbit and rat sera. The conditions noted are these: BSA-glutaraldehyde conjugated analogue; rabbit and rat sera affinity depleted with histidine-KLH. In kind it is binding. The protocol:
Solutions of the BSA-amino acid conjugates of histidine, tele-phosphohistidine, and the analogues, were first diluted 1000 fold. These solutions as well as the commercially available solutions of BSA conjugated to phosphoserine, phosphothreonine, and phosphotyrosine were spotted (2 μL) onto a PVDF membrane. Once the spots were dry, the membrane was rinsed with methanol before being blocked in 5% non-fat dry milk in 10 mM Tris-HCl pH 8.0, 17 mM NaCl (TBS), Tween (0.05%) (5% NFDM/TBST) for 1 hour and then incubated with the rat sera raised against the analogue of interest at 1/1000 dilution in 5% NFDM/TBST overnight at 4° C. The membrane was then washed using TBS-Tween (0.05%) 3 times for 15 minutes, before being incubated with a 1/2000 fold dilution of goat anti-rat IgG-HRP conjugate in 5% NFDM/TBST for 60 minutes at room temperature. Membranes were then washed 3 times for 15 minutes using TBS-Tween (0.05%) and then treated with SuperSignal West Dura Chemiluminescent Substrate for 3 minutes. […]
In addition, further antibodies against 4-phosphopyrazol-1-yl alanine were raised as described in sections 2.1.1 to 2.1.4 above, and dot blot analysis conducted as described in section 2.5. […] The data establishes that 4-phosphopyrazol-1-yl alanine amide and 4-phosphothiazol-1-yl alanine amide are detected by the polyclonal sera raised against 4-phosphopyrazol-1-yl alanine.

The compound `N[C@@H](Cn1cc(P(=O)(O)O)cn1)C(=O)O` [Compound 12] had a melting point of 200 °C. On the same count and under the same terms, in the case of `N[C@@H](Cc1ncc(P(=O)(O)O)s1)C(=O)O` [Compound 20, (S)-2-Amino-3-(5-phosphoryl-1,3-thiazol-2-yl)propanoic acid] it was 196 to 199 °C (dec.). Take `C[C@H](N[SH]1C=NC(P(=O)(O)O)=C1)C(N)=O` (some centres unmarked) [4-phosphothiazol-1-yl alanine amide]: the “detection by polyclonal sera raised against 4-phosphopyrazol-1-yl alanine (dot blot)” value in data set [1] was “detected”. As to `N[C@@H](Cc1cc(P(=O)(O)O)cs1)C(=O)O` [Compound 17], the melting point stood at 260 °C. Compound `N[C@@H](Cc1ccc(P(=O)(O)O)cn1)C(=O)O` [Compound 6] showed a melting point of 270 °C.

The values above are taken from patent US10053476B2, “Phosphohistidine and phosphotyrosine analogues” (UNIVERSITY OF SHEFFIELD, priority 2013, dated 2018).
